Some test systems named below: Bacillus megaterium; Escherichia coli ML-35; Escherichia coli JW0013; Escherichia coli; Micrococcus luteus A270; Listeria innocua; Staphylococcus aureus; Pseudomonas aeruginosa; Bacillus subtilis 168; Escherichia coli B.
Common to all, as to assay: ≥ marks a high value that may be exact or a test limit, other limits are often not marked, values filed in µg/mL are converted to µM
The test system of assay [1] is Pseudomonas aeruginosa ATCC 27853.
For assay [2], the system named is Salmonella enterica subsp. enterica serovar Typhimurium ATCC 14028.
Assay [3] deals with Staphylococcus aureus ATCC 25923.
Assay [4] concerns Escherichia coli ATCC 25922.
Assay [5] has as its system Staphylococcus aureus ATCC 43300.
In assay [6] the test system is Candida albicans NCYC 1467.
Assay [7] deals with Escherichia coli NCTC 10418.
Assay [8] relates to Staphylococcus aureus NCTC 12493.
Assay [9] relates to Staphylococcus aureus NCTC 10788.
Assay [10] has as its system Candida albicans F7-39/IDE99.
In assay [11] the test system is Micrococcus luteus CCM 144.
In assay [12] the test system is Escherichia coli ATCC 35218.
For assay [13], the system named is Pseudomonas aeruginosa ATCC 9027.
Assay [14] relates to Bacillus cereus ATCC 11778.

Converted amounts (≈) assume the structure as drawn.

What is called MIC is the lowest concentration that inhibits growth of the organism. Low values mean a more susceptible organism, high ones a less susceptible organism.

For `CC[C@H](C)[C@H](NC(=O)[C@H](CCCCN)NC(=O)[C@H](CCCCN)NC(=O)[C@H](CC(C)C)NC(=O)[C@H](CCCCN)NC(=O)[C@H](CCC(N)=O)NC(=O)[C@H](CCCCN)NC(=O)[C@@H](NC(=O)[C@H](CCCCN)NC(=O)[C@H](CC(N)=O)NC(=O)[C@H](CCCN=C(N)N)NC(=O)[C@H](Cc1ccccc1)NC(=O)[C@H](CCCCN)NC(=O)[C@H](CCCN=C(N)N)NC(=O)[C@H](CC(C)C)NC(=O)[C@H](CCCN=C(N)N)NC(=O)[C@H](CCCCN)NC(=O)[C@H](CCCN=C(N)N)NC(=O)[C@H](CC(C)C)NC(=O)CN)[C@@H](C)CC)C(=O)O` [GLRKRLRKFRNKIKQKLKKI], the MIC in [1] turned out to be 0.5 µM (≈ 1.28 µg/mL); in assay [2], 2 µM (≈ 5.1 µg/mL); against Bacillus megaterium it was 4 µM (≈ 10.2 µg/mL); in assay [3], 4 µM (≈ 10.2 µg/mL); against Escherichia coli ML-35, 2 µM (≈ 5.1 µg/mL); in assay [4], 4 µM (≈ 10.2 µg/mL).

As to `CSCC[C@H](NC(=O)[C@H](CC(=O)O)NC(=O)[C@@H](NC(=O)[C@@H](NC(=O)[C@H](C)NC(=O)[C@H](CC(N)=O)NC(=O)[C@H](CC(C)C)NC(=O)[C@H](C)NC(=O)[C@H](C)NC(=O)[C@H](CCCCN)NC(=O)CNC(=O)[C@H](C)NC(=O)[C@H](C)NC(=O)[C@H](CCCCN)NC(=O)CNC(=O)[C@@H](NC(=O)[C@H](CC(N)=O)NC(=O)[C@H](CCCCN)NC(=O)[C@H](Cc1ccccc1)NC(=O)[C@H](CC(C)C)NC(=O)[C@H](CO)NC(=O)[C@H](CCCCN)NC(=O)[C@H](Cc1c[nH]c2ccccc12)NC(=O)[C@H](CC(C)C)NC(=O)CN)C(C)C)C(C)C)[C@@H](C)O)C(=O)N[C@H](C(=O)N[C@@H](CC(N)=O)C(=O)N[C@@H](CCC(N)=O)C(N)=O)C(C)C` [GLWKSLFKNVGKAAGKAALNAVTDMVNQ], the MIC is 21.8 µM (≈ 64 µg/mL) in [1]; 10.9 µM (≈ 32 µg/mL) in [5]; 10.9 µM (≈ 32 µg/mL) in assay [6]; 5.46 µM (≈ 16 µg/mL) in assay [7]; 21.8 µM (≈ 64 µg/mL) in assay [8]; 5.46 µM (≈ 16 µg/mL) in assay [9].

In the assay on Escherichia coli JW0013, `CC[C@H](C)[C@H](NC(=O)[C@H](CCCN=C(N)N)NC(=O)[C@@H](N)CCCCN)C(=O)N[C@@H](CCCN=C(N)N)C(=O)N1CCC[C@H]1C(=O)N[C@@H](CCCN=C(N)N)C(=O)N1CCC[C@H]1C(=O)N1CCC[C@H]1C(=O)N[C@@H](CCCN=C(N)N)C(=O)N[C@@H](CC(C)C)C(=O)N1CCC[C@H]1C(=O)N[C@@H](CCCN=C(N)N)C(=O)N1CCC[C@H]1C(=O)N[C@@H](CCCN=C(N)N)C(=O)N1CCC[C@H]1C(=O)N[C@@H](CCCN=C(N)N)C(=O)O` [KRIRPRPPRLPRPRPR] yielded an MIC of 0.3 µM (≈ 0.615 µg/mL).

`CC(C)C[C@H](NC(=O)[C@@H](NC(=O)[C@@H](NC(=O)[C@H](CC(C)C)NC(=O)[C@H](CC(C)C)NC(=O)[C@H](CO)NC(=O)[C@H](Cc1cnc[nH]1)NC(=O)[C@H](CO)NC(=O)[C@H](CC(C)C)NC(=O)[C@H](CC(C)C)NC(=O)[C@H](CCCCN)NC(=O)[C@H](Cc1ccccc1)NC(=O)[C@H](CC(N)=O)NC(=O)[C@@H](NC(=O)[C@@H]1CCCN1C(=O)[C@H](CC(=O)O)NC(=O)[C@@H](NC(=O)[C@H](CCCN=C(N)N)NC(=O)[C@H](CC(C)C)NC(=O)[C@H](CCCCN)NC(=O)[C@H](Cc1cnc[nH]1)NC(=O)[C@H](C)NC(=O)[C@H](Cc1cnc[nH]1)NC(=O)[C@@H](N)CC(C)C)C(C)C)C(C)C)C(C)C)[C@@H](C)O)C(=O)O` [LHAHKLRVDPVNFKLLSHSLLVTL]: the MIC against Escherichia coli is 11 µM (≈ 30.3 µg/mL); in the assay with Micrococcus luteus A270 it was at least 45 µM; against Listeria innocua, 11 µM (≈ 30.3 µg/mL).

As to `CC[C@H](C)[C@H](NC(=O)[C@H](C)NC(=O)CNC(=O)[C@H](Cc1c[nH]c2ccccc12)NC(=O)[C@H](CCCCN)NC(=O)[C@@H](N)CC(C)C)C(=O)N[C@@H](CC(C)C)C(=O)N[C@@H](CCCCN)C(=O)N[C@@H](Cc1cnc[nH]1)C(=O)N[C@H](C(=O)N[C@H](C(=O)N[C@@H](CCCCN)C(N)=O)[C@@H](C)CC)[C@@H](C)CC` [LKWGAILKHIIK], the minimal inhibitory concentration (MIC) with Staphylococcus aureus was 11.7 µM (≈ 16.6 µg/mL); in [10], 5.1 µM (≈ 7.24 µg/mL); in [11], 3.7 µM (≈ 5.25 µg/mL); against Pseudomonas aeruginosa, 46.7 µM (≈ 66.3 µg/mL); in the assay on Bacillus subtilis 168, 3.7 µM (≈ 5.25 µg/mL); against Escherichia coli B, 3.7 µM (≈ 5.25 µg/mL).

As to `CC(C)C[C@H](NC(=O)[C@H](C)NC(=O)[C@H](C)NC(=O)CNC(=O)[C@H](Cc1c[nH]c2ccccc12)NC(=O)[C@H](CC(N)=O)NC(=O)[C@@H](N)CC(C)C)C(=O)N[C@@H](CCCCN)C(=O)N[C@@H](Cc1cnc[nH]1)C(=O)N[C@@H](C)C(=O)N[C@@H](C)C(=O)N[C@@H](CCCCN)C(N)=O` [LNWGAALKHAAK], the MIC with Staphylococcus aureus is over 100 µM; in [10] it was at least 100 µM; in [11], at least 100 µM; with Pseudomonas aeruginosa, over 100 µM; in the assay on Bacillus subtilis 168 it was at least 100 µM; in the assay with Escherichia coli B, at least 100 µM.

As to `CC(C)C[C@H](NC(=O)[C@H](CC(C)C)NC(=O)[C@@H](N)[C@@H](C)O)C(=O)N[C@@H](CCCCN)C(=O)N[C@@H](CCCCN)C(=O)N[C@H](C(=O)N[C@@H](CC(C)C)C(=O)N[C@@H](CCCCN)C(=O)N[C@@H](C)C(=O)N[C@@H](C)C(=O)N[C@@H](C)C(N)=O)C(C)C` [TLLKKVLKAAA], the minimum inhibitory concentration (MIC) in assay [12] is at least 50 µM; in assay [13], over 50 µM; in assay [3] it was over 50 µM; in [14] it was at least 50 µM.

For `CC[C@H](C)[C@H](NC(=O)[C@@H]1CCCN1C(=O)[C@H](CCCCN)NC(=O)[C@@H]1CCCN1C(=O)[C@@H]1CCCN1C(=O)[C@@H](NC(=O)[C@@H]1CCCN1C(=O)[C@H](CCCN=C(N)N)NC(=O)[C@@H]1CCCN1C(=O)[C@H](CC(C)C)NC(=O)[C@H](Cc1ccc(O)cc1)NC(=O)[C@H](CO)NC(=O)CNC(=O)[C@H](CCCCN)NC(=O)[C@H](CC(=O)O)NC(=O)[C@@H](N)C(C)C)[C@@H](C)O)C(=O)N[C@@H](Cc1ccc(O)cc1)C(=O)N[C@@H](CC(N)=O)C(=O)N[C@@H](CCCN=C(N)N)C(=O)N[C@@H](CC(N)=O)C(=O)O` [VDKGSYLPRPTPPKPIYNRN], the MIC in the assay with Escherichia coli JW0013 was determined as 0.3 µM (≈ 0.694 µg/mL).

In the assay with Escherichia coli JW0013, `CC[C@H](C)[C@H](NC(=O)[C@@H]1CCCN1C(=O)[C@H](CCCN=C(N)N)NC(=O)[C@@H]1CCCN1C(=O)[C@@H]1CCCN1C(=O)[C@@H](NC(=O)[C@@H]1CCCN1C(=O)[C@H](CCCN=C(N)N)NC(=O)[C@@H]1CCCN1C(=O)[C@H](CCCN=C(N)N)NC(=O)[C@H](Cc1ccc(O)cc1)NC(=O)[C@H](CO)NC(=O)CNC(=O)[C@H](CCCCN)NC(=O)[C@H](CC(=O)O)NC(=O)[C@@H](N)C(C)C)[C@@H](C)O)C(=O)N[C@@H](Cc1ccc(O)cc1)C(=O)N[C@@H](CC(N)=O)C(=O)N[C@@H](CCCN=C(N)N)C(=O)N[C@@H](CC(N)=O)C(=O)O` [VDKGSYRPRPTPPRPIYNRN] showed a minimal inhibitory concentration (MIC) of 0.3 µM (≈ 0.715 µg/mL).

Molecule `CC[C@H](C)[C@H](NC(=O)[C@H](CCCN=C(N)N)NC(=O)[C@H](CCCN=C(N)N)NC(=O)[C@@H]1CCCN1C(=O)[C@@H]1CCCN1C(=O)[C@H](CCCN=C(N)N)NC(=O)[C@@H]1CCCN1C(=O)[C@H](CCSC)NC(=O)[C@@H]1CCCN1C(=O)[C@H](CC(C)C)NC(=O)[C@H](Cc1ccc(O)cc1)NC(=O)[C@@H]1CCCN1C(=O)[C@@H]1CCCN1C(=O)[C@H](CCCCN)NC(=O)[C@H](CC(=O)O)NC(=O)[C@@H](N)C(C)C)C(=O)N[C@@H](Cc1ccc(O)cc1)C(=O)N[C@@H](CC(N)=O)C(=O)N[C@@H](CCCN=C(N)N)C(N)=O` [VDKPPYLPMPRPPRRIYNR] displayed a minimal inhibitory concentration (MIC) against Escherichia coli JW0013 of 2.03 µM (≈ 4.8 µg/mL). Compared with the last molecule, the MIC is about 6.8-fold higher.

`CC[C@H](C)[C@H](NC(=O)[C@H](CCCN=C(N)N)NC(=O)[C@H](CCCN=C(N)N)NC(=O)[C@@H]1CCCN1C(=O)[C@@H]1CCCN1C(=O)[C@H](CCCN=C(N)N)NC(=O)[C@H](CCCN=C(N)N)NC(=O)[C@H](CCCN=C(N)N)NC(=O)[C@@H]1CCCN1C(=O)[C@H](CC(C)C)NC(=O)[C@H](CCCN=C(N)N)NC(=O)[C@@H]1CCCN1C(=O)[C@H](CCCN=C(N)N)NC(=O)[C@H](CCCCN)NC(=O)[C@H](CC(=O)O)NC(=O)[C@@H](N)C(C)C)C(=O)N[C@@H](Cc1ccc(O)cc1)C(=O)N[C@@H](CC(N)=O)C(=O)N[C@@H](CCCN=C(N)N)C(N)=O` [VDKRPRLPRRRPPRRIYNR] showed an MIC against Escherichia coli JW0013 of 0.959 µM (≈ 2.4 µg/mL).

The values are drawn from DBAASP.
